The record followed here is patent US20210115040A1, “OGA INHIBITOR COMPOUNDS” (Janssen Pharmaceutica NV, priority 2018, published 2021).

Test [1] concerns the target T1, recombinant human Meningioma Expressed Antigen 5 (MGEA5), also referred to as O-GlcNAcase (OGA) (Homo sapiens, UniProt O60502).
T1 construct: Full length OGA enzyme was purchased at OriGene (cat #TP322411); purchased OriGene TP322411
T1 sequence (O60502 1-916): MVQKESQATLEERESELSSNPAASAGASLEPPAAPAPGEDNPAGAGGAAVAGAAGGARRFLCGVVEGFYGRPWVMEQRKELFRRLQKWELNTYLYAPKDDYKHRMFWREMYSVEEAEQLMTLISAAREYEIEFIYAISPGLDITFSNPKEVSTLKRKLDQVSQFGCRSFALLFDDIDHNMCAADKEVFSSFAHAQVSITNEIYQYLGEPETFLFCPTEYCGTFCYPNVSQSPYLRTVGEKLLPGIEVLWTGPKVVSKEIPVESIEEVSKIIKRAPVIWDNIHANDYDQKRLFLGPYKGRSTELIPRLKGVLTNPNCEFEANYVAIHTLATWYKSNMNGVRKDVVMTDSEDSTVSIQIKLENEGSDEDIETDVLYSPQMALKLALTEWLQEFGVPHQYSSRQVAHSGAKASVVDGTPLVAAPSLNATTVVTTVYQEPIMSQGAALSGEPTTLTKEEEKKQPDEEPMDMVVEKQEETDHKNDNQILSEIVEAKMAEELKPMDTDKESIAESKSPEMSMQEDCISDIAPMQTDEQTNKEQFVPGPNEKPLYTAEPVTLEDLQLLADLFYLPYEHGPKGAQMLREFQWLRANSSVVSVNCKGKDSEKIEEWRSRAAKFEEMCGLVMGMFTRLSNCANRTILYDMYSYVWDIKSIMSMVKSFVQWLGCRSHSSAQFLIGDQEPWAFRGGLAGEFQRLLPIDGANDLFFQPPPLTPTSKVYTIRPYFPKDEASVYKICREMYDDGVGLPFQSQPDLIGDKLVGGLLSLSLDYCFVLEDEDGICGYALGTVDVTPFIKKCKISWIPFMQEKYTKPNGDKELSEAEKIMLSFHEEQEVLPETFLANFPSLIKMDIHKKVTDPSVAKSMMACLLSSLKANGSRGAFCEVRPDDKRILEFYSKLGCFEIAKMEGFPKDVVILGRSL
Kind of test: OGA biochemical assay (inhibition of FM-GlcNAc hydrolysis, fluorescence). The following applies: FM-GlcNAc substrate; for IC50: 6 h at room temperature, read-out: Enzymatic hOGA, pIC50 (converted); for Emax / Enzymatic Emax (%): maximal effect; for Emax: read-out: Enzymatic Emax (%). The text has this:
The assay is based on the inhibition of the hydrolysis of fluorescein mono-β-D-N-Acetyl-Glucosamine (FM-GlcNAc) (Mariappa et al. 2015, Biochem J 470:255) by the recombinant human Meningioma Expressed Antigen 5 (MGEA5), also referred to as O-GlcNAcase (OGA). The hydrolysis FM-GlcNAc (Marker Gene technologies, cat #M1485) results in the formation of β-D-N-glucosamineacetate and fluorescein. The fluorescence of the latter can be measured at excitation wavelength 485 nm and emission wavelength 538 nm. An increase in enzyme activity results in an increase in fluorescence signal. Full length OGA enzyme was purchased at OriGene (cat #TP322411). The enzyme was stored in 25 mM Tris.HCl, pH 7.3, 100 mM glycine, 10% glycerol at −20° C. Thiamet G and GlcNAcStatin were tested as reference compounds (Yuzwa et al. 2008 Nature Chemical Biology 4:483; Yuzwa et al. 2012 Nature Chemical Biology 8:393). The assay was performed in 200 mM Citrate/phosphate buffer supplemented with 0.005% Tween-20. 35.6 g Na2HPO4 2H2O (Sigma, #C0759) were dissolved in 1 L water to obtain a 200 mM solution. 19.2 g citric acid (Merck, #1.06580) was dissolved in 1 L water to obtain a 100 mM solution. pH of the sodiumphosphate solution was adjusted with the citric acid solution to 7.2. The buffer to stop the reaction consists of a 500 mM Carbonate buffer, pH 11.0. 734 mg FM-GlcNAc were dissolved in 5.48 mL DMSO to obtain a 250 mM solution and was stored at −20° C. OGA was used at a 2 nM concentration and FM-GlcNAc at a 100 uM final concentration. Dilutions were prepared in assay buffer.
50 nl of a compound dissolved in DMSO was dispensed on Black Proxiplate™ 384 Plus Assay plates (Perkin Elmer, #6008269) and 3 μl fl-OGA enzyme mix added subsequently. Plates were pre-incubated for 60 min at room temperature and then 2 μl FM-GlcNAc substrate mix added. […] Plates were briefly centrifuged for 1 min at 1000 rpm and incubate at room temperature for 6 h. To stop the reaction 5 μl STOP buffer were added and plates centrifuge again 1 min at 1000 rpm. Fluorescence was quantified in the Thermo Scientific Fluoroskan Ascent or the PerkinElmer EnVision with excitation wavelength 485 nm and emission wavelength 538 nm.
For analysis a best-fit curve is fitted by a minimum sum of squares method. From this an IC50 value and Hill coefficient was obtained. High control (no inhibitor) and low control (saturating concentrations of standard inhibitor) were used to define the minimum and maximum values.

The target in another test is T2, OGA (Homo sapiens, UniProt O60502).
T2 construct: HEK293 cells inducible for P301L mutant human Tau (isoform 2N4R) were established at Janssen; endogenous in cells; host or cells: HEK293 cells inducible for P301L mutant human Tau (2N4R)
T2 sequence (O60502 1-916): T1 sequence (O60502 1-916)
Kind of test: OGA cellular assay (ICC detection of O-GlcNAcylated proteins in HEK293 cells inducible for P301L mutant human Tau). Type of test: cell-based. The following applies: for Emax: HEK293, HEK293 cells inducible for P301L mutant human Tau; for Emax / Cellular Emax (%): maximum = Thiamet G 200 uM; for EC50 / Cellular Emax (%): HEK293 cells inducible for P301L mutant human Tau; for EC50: 6 hours incubation, read-out: Cellular hOGA, pEC50 (converted). As to the method:
HEK293 cells inducible for P301L mutant human Tau (isoform 2N4R) were established at Janssen. Thiamet-G was used for both plate validation (high control) and as reference compound (reference EC50 assay validation). OGA inhibition is evaluated through the immunocytochemical (ICC) detection of O-GlcNAcylated proteins by the use of a monoclonal antibody (CTD110.6; Cell Signaling, #9875) detecting 0-GlcNAcylated residues as previously described (Dorfmueller et al. 2010 Chemistry & biology, 17:1250). Inhibition of OGA will result in an increase of O-GlcNAcylated protein levels resulting in an increased signal in the experiment. Cell nuclei are stained with Hoechst to give a cell culture quality control and a rough estimate of immediate compounds toxicity, if any. ICC pictures are imaged with a Perkin Elmer Opera Phenix plate microscope and quantified with the provided software Perkin Elmer Harmony 4.1.
Cells were propagated in DMEM high Glucose (Sigma, #D5796) following standard procedures. 2 days before the cell assay cells are split, counted and seeded in Poly-D-Lysine (PDL) coated 96-wells (Greiner, #655946) plate at a cell density of 12,000 cells per cm^2 (4,000 cells per well) in 100 μl of Assay Medium (Low Glucose medium is used to reduce basal levels of GlcNAcylation) (Park et al. 2014 The Journal of biological chemistry 289:13519). At the day of compound test medium from assay plates was removed and replenished with 90 μl of fresh Assay Medium. 10 μl of compounds at a 10fold final concentration were added to the wells. Plates were centrifuged shortly before incubation in the cell incubator for 6 hours. DMSO concentration was set to 0.2%. Medium is discarded by applying vacuum. For staining of cells medium was removed and cells washed once with 100 μl D-PBS (Sigma, #D8537). From next step onwards unless other stated assay volume was always 50 μl and incubation was performed without agitation and at room temperature. Cells were fixed in 50 μl of a 4% paraformaldehyde (PFA, Alpha aesar, #043368) PBS solution for 15 minutes at room temperature. […] Before analysis samples were washed 2 times manually for 5 minutes in ICC base buffer.
Imaging is performed using Perkin Elmer Phenix Opera using a water 20× objective and recording 9 fields per well. Intensity readout at 488 nm is used as a measure of O-GlcNAcylation level of total proteins in wells. To assess potential toxicity of compounds nuclei were counted using the Hoechst staining. IC50-values are calculated using parametric non-linear regression model fitting. As a maximum inhibition Thiamet G at a 200 uM concentration is present on each plate. In addition, a concentration response of Thiamet G is calculated on each plate.

Bounds are passed on as bounds.

For the compound `Cc1cc(C[C@H]2CCCN(C(C)c3ccc4oc(C)nc4n3)C2)cc(C(F)(F)F)n1` (mixture of isomers) [Compound 24ab], in test [1], the IC50 is 12.6 nM and the Emax (usually the size of the effect at its maximum, as opposed to the concentration needed) was found to be 103%. For the same compound, on OGA, the Emax is 91% and the EC50 was 50.1 nM.

Regarding `Cc1cc(C[C@@H]2CCN(C(C)c3ccc4oc(C(C)C)nc4n3)C2)cc(C)n1` (mixture of isomers) [Compound 31], in test [1], the IC50 was > 10000 nM and the Emax is 30%. Also, on OGA, the Emax is -7% and the EC50 is > 1000 nM.

Take `Cc1cc(C[C@H]2CCN(C(C)c3cnc4[nH]c(C)nc4c3)C2)cc(C)n1` (stereo partly shown) [Compound 102]: in test [1], the IC50 was 398 nM and the Emax amounted to 96%. Moreover, on OGA, the Emax stood at 32% and the EC50 is > 1000 nM.

As for `Cc1cc(CO[C@@H]2CCCN(C(C)c3ccc4sc(C)nc4n3)C2)cc(C)n1` (single isomer, unassigned) [Compound 69], in test [1], the IC50 is 501 nM and the Emax was found to be 96%. Moreover, at OGA, the Emax is -6% and the EC50 was > 1000 nM.

Take `Cc1cc(CO[C@H]2CCCN(C(C)c3cc4nc(C)sc4cc3F)C2)cc(C)n1` (single isomer, unassigned) [Compound 101]: in test [1], the IC50 was 3.98 nM and the “Enzymatic Emax (%)” value worked out at 98%. Also, at OGA, the EC50 is 50.1 nM and the “Cellular Emax (%)” value turned out to be 73%.

For the compound `Cc1cc(CO[C@H]2CCCN(C(C)c3ccc4sc(C)nc4n3)C2)cc(C)n1` (single isomer, unassigned) [Compound 67], in test [1], the IC50 is 501 nM and the Emax was found to be 94%. On OGA, the Emax came to 5% and the EC50 is > 1000 nM.

As to `Cc1cc(O[C@@H]2CCN(C(C)c3ccc4sc(C)nc4n3)C2)cc(C)n1` (single isomer, unassigned) [Compound 73], in test [1], the IC50 is > 10000 nM and the “Enzymatic Emax (%)” value amounted to 8%. Moreover, on OGA, the EC50 was > 1000 nM and the “Cellular Emax (%)” value is recorded as −9%.

For the compound `Cc1cc([C@H]2CCCN(C(C)c3nc4nc(C)[nH]c4cc3F)C2)cc(C)n1` (stereo partly shown) [Compound 82], in test [1], the IC50 is 126 nM and the Emax was 97%. In addition, at OGA, the Emax stood at 39% and the EC50 is > 1000 nM.

Turning to `COc1cc(NC[C@H]2CCCN(C(C)c3ccc4sc(C)nc4n3)C2)cc(C)n1` (stereo partly shown) [Compound 109], in test [1], the IC50 is 6.31 nM and the Emax amounted to 100%. On OGA, the Emax stood at 89% and the EC50 was 10 nM.

Turning to `Cc1cc(C[C@H]2CCCN(C(C)c3ccc4oc(C)nc4n3)C2)cc(OC(F)(F)F)n1` (mixture of isomers) [Compound 25ab], in test [1], the IC50 was 15.8 nM and the Emax turned out to be 101%. On OGA, the Emax was 86% and the EC50 is 200 nM.

As to `Cc1cc(CO[C@@H]2CCCN(C(C)c3ccc4sc(C)nc4n3)C2)cc(C)n1` (stereo partly shown) [Compound 68], in test [1], the IC50 is 126 nM and the Emax was 98%. Moreover, on OGA, the Emax amounted to 27% and the EC50 was > 1000 nM.

Take `COc1cc(CN[C@H]2CCCN(C(C)c3ccc4sc(C)nc4n3)C2)cc(C)n1` (stereo partly shown) [Compound 107]: in test [1], the IC50 is 63.1 nM and the Emax turned out to be 93%. Moreover, on OGA, the Emax is 60% and the EC50 was 794 nM.

Regarding `COc1cc(C[C@H]2CCCN([C@H](C)c3ccc4oc(C)nc4n3)C2)cc(C)n1` (relative stereo) [Compound 23a], in test [1], the IC50 is 7.94 nM and the Emax turned out to be 101%. In addition, on OGA, the Emax was 79% and the EC50 is 25.1 nM.

Consider `Cc1cc([C@H]2CCCN([C@@H](C)c3ccc4sc(C)nc4n3)C2)nc(C)n1` (racemic) [Compound 71], for which, in test [1], the IC50 was 7940 nM and the Emax came out at 51%. For the same compound, on OGA, the Emax was -5% and the EC50 was > 1000 nM.

For the compound `Cc1cc(C[C@H]2CCCN(Cc3ccc4cn(C)nc4c3)C2)cc(C)n1` [Compound 17], in test [1], the IC50 is 794 nM and the Emax is 90%.

As for `COc1cc(OC2CCCN(C(C)c3ccc4sc(C)nc4n3)C2)cc(C)n1` (stereo not shown) [Compound 41], in test [1], the IC50 is 126 nM and the Emax came out at 101%.

As to `Cc1cc(C[C@H]2CCN(C(C)c3ccc4nc(C)sc4c3)C2)cc(C)n1` (single isomer, unassigned) [Compound 57], in test [1], the IC50 was > 10000 nM and the Emax amounted to 28%.

Turning to `Cc1cc(C2CCCN(C(C)c3cnc4[nH]c(C)nc4c3)C2)cc(C)n1` (stereo not shown) [Compound 1], in test [1], the IC50 was 316 nM and the Emax worked out at 98%.
